Tests used:
[1] = Cytotoxicity in Huh7 cells without virus infection (CellTiter Glo); conditions: human
Huh7 cells = assay: as above
[2] = system: Human Coronavirus 229E (hCoV-229E); assay: microbe, parasite or virus in culture; type: cell-based
hCoV-OC43 = assay: HCoV OC43 CPE assay in Huh7 cells; type: cell-based; conditions: Betacoronavirus 1, Huh-7

## CCC(CC)COC(=O)[C@H](C)N[P@](=O)(OC[C@H]1O[C@@](C#N)(c2ccc3c(N)ncnn23)[C@H](O)[C@@H]1O)Oc1ccccc1 [Remdesivir]
[1]
  CC50 at 7 days: 17.2 µM
Huh7 cells; 0.046 μM
  Average Viability (%): 99.99%
Huh7 cells; 0.137 μM
  Average Viability (%): 101.58%
Huh7 cells; 0.412 μM
  Average Viability (%): 104.10%
Huh7 cells; 1.235 μM
  Average Viability (%): 102.28%
Huh7 cells; 3.704 μM
  Average Viability (%): 86.91%
Huh7 cells; 11.11 μM
  Average Viability (%): 56.84%
Huh7 cells; 33.33 μM
  Average Viability (%): 36.88%
Huh7 cells; 100.00 μM
  Average Viability (%): 21.77%

## NC(=O)c1ncn([C@@H]2O[C@H](CO)[C@@H](O)[C@H]2O)n1 [Ribavirin]
[2]
  IC50: 30 µM

## CCN(CC)CCCC(C)Nc1ccnc2cc(Cl)ccc12 (centres unmarked) [chloroquine phosphate]
hCoV-OC43
  EC50: 3.12 µM

Source: patent publication US20230131808A1, “PEGYLATED INTERFERON TAU AND COMPOSITIONS AND METHODS THEREOF” (priority 2020, published 2023)
